Measurements reported in US10160762B2, “6-alkyl dihydropyrazolopyrimidinone compounds as PDE2 inhibitors” (Merck Sharp & Dohme Corp., priority 2015, dated 2018).

molecular target: T1, human PDE2A1 (Homo sapiens, UniProt O00408); test: IMAP FP PDE assay, human PDE2A1; assay type: biochemical; details: Lab B; read-out: Human PDE2 Ki (nM) Lab B
T1 construct: GST; purchased BPS Bioscience (San Diego, Calif.) 60020; host or cells: insect cells
Method: Selectivity for PDE2, as compared to other PDE families, was assessed using the IMAP® technology. Human PDE10A2 enzyme was prepared from cytosolic fractions of transiently transfected HEK cells. All other PDE's were GST Tag human enzyme expressed in insect cells and were obtained from BPS Bioscience (San Diego, Calif.): PDE1A (Cat#60010), human PDE2A1 (Cat#60020), PDE3A (Cat#60030), PDE4A1A (Cat#60040), PDE5A1 (Cat#60050), PDE6C (Cat#60060), PDE7A (Cat#60070), PDE8A1 (Cat#60080), PDE9A2 (Cat#60090), PDE11A4 (Cat#60110).
Assays for PDE 1 through 11 were performed in parallel at room temperature in 384-well microtiter plates with an incubation volume of 20.2 μL. Solutions of test compounds were prepared in DMSO and serially diluted with DMSO to yield 30 μL of each of ten solutions differing by 3-fold in concentration, at 32 serial dilutions per plate. […] A Labcyte POD 810 (Labcyte, Sunnyvale, Calif.) was used to dispense 200 nL from each well of the titration plate to make eleven copies of the assay plate for each titration, one copy for each PDE enzyme. A solution of each enzyme (dilution from aliquots, sufficient to produce 20% substrate conversion) and a separate solution of FAM-labeled cAMP or FAM-labeled cGMP from Molecular Devices (Sunnyvale, Calif., product # R7506 or cGMP#R7508), at a final concentration of 50 nM were made in the assay buffer (10 mM Tris HCl, pH 7.2, 10 mM MgCl2, 0.05% NaN3 0.01% Tween-20, and 1 mM DTT). Note that the substrate for PDE2 is 50 nM FAM cAMP containing 1000 nM of cGMP. The enzyme and the substrate were then added to the assay plates in two consecutive additions of 10 μL and then shaken to mix. The reaction was allowed to proceed at room temperature for 60 minutes. A binding solution was then made from the kit components, comprised of 80% Solution A, 20% Solution B and binding reagent at a volume of 1/600 the total binding solution. The enzymatic reaction was stopped by addition of 60 μL of the binding solution to each well of the assay plate. The plates were sealed and shaken for 10 seconds. The plates were incubated at room temperature for one hour, then the parallel and perpendicular fluorescence was measured using a Tecan Genios Pro plate reader (Tecan, Switzerland). The apparent inhibition constants for the compounds against all 11 PDE's was determined from the parallel and perpendicular fluorescent readings as described for PDE10 FP assay using the following apparent KM values for each enzyme and substrate combination: PDE1A (FAM cGMP) 70 nM, human PDE2A1 (FAM cAMP) 10,000 nM, PDE3A (FAM cAMP) 50 nM, PDE4A1A (FAM cAMP) 1500 nM, PDE5A1 (FAM cGMP) 400 nM, PDE6C (FAM cGMP) 700 nM, PDE7A (FAM cAMP) 150 nM, PDE8A1 (FAM cAMP) 50 nM, PDE9A2 (FAM cGMP) 60 nM, PDE10A2 (FAM cAMP) 150 nM, PDE11A4 (FAM cAMP) 1000 nM. The intrinsic PDE2 inhibitory activity of a compound which may be used in accordance with the present invention may be determined by these assays.

T1 sequence (O00408 1-920 isoform O00408-2): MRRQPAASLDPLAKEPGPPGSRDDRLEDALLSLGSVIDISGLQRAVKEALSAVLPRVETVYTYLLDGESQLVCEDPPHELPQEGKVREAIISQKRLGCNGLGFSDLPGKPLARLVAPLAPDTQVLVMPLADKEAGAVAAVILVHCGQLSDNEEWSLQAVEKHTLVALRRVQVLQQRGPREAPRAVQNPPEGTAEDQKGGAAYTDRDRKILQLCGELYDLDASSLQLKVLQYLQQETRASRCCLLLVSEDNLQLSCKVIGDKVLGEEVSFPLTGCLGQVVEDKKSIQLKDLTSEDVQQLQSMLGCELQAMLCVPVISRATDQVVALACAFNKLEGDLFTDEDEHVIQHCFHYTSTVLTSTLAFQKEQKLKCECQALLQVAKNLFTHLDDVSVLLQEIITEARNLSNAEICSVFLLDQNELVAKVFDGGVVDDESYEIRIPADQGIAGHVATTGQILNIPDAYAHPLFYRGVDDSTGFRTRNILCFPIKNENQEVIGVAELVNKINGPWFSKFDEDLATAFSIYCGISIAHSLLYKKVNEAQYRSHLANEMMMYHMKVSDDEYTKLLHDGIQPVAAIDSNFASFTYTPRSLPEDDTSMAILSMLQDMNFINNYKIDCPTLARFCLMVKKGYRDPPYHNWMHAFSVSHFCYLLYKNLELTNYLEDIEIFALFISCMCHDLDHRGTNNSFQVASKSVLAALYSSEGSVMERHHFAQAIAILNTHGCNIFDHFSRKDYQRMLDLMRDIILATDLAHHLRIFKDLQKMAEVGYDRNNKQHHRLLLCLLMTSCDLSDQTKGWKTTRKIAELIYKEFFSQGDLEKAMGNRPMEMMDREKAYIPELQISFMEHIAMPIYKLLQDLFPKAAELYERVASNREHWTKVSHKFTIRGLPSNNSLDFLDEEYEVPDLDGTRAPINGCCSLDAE

| Ki [nM] | SMILES |
| --- | --- |
| 258 | Cc1nc2c(c(-c3ccco3)nn2C(C)c2ccc(C(F)(F)F)cc2)c(=O)[nH]1 (single isomer, unassigned) [Example 74, (R)- or (S)-3-(Furan-2-yl)-6-methyl-1-(1-(4-(trifluoromethyl)phenyl)ethyl)-1H-pyrazolo[3,4-d]pyrimidin-4(5H)-one] |
| 54 | CC(=O)Nc1nn(C(C)c2ccc(C(F)(F)F)cc2)c2nc(C)[nH]c(=O)c12 (single isomer, unassigned) [Example 260] |
| ~1430 | Cc1nc2c(c(C(=O)NCC(F)(F)F)nn2C(C)c2ccc(C(F)(F)F)cc2)c(=O)[nH]1 (single isomer, unassigned) [Example 269, (S)- or (R)-6-Methyl-4-oxo-N-(2,2,2-trifluoroethyl)-1-(1-(4-(trifluoromethyl)phenyl)ethyl)-4,5-dihydro-1H-pyrazolo[3,4-d]pyrimidine-3-carboxamide] |
| ≥ 2960 | Cc1nc2c(c(CO)nn2C(C)c2ccc(C(F)(F)F)nc2)c(=O)[nH]1 (single isomer, unassigned) [Example 130, (R)- or (S)-3-(Hydroxymethyl)-6-methyl-1-(1-(6-(trifluoromethyl)pyridin-3-yl)ethyl)-1H-pyrazolo[3,4-d]pyrimidin-4(5H)-one] |
| 4.6 | COCC(c1ccc(C(F)(F)F)cc1)n1nc(C(F)F)c2c(=O)[nH]c(C)nc21 (single isomer, unassigned) [Example 173, (R)- or (S)-3-(Difluoromethyl)-1-(2-methoxy-1-(4-(trifluoromethyl)phenyl)ethyl)-6-methyl-1H-pyrazolo[3,4-d]pyrimidin-4(5H)-one] |
| 0.15 | COc1cccc(Cc2nc3c(c(-c4nnco4)nn3C(C)c3ccc(C(F)(F)F)cc3)c(=O)[nH]2)c1 (single isomer, unassigned) [Example 345, (S)- or (R)-6-(3-Methoxybenzyl)-3-(1,3,4-oxadiazol-2-yl)-1-(1-(4-(trifluoromethyl)phenyl)ethyl)-1,5-dihydro-4H-pyrazolo[3,4-d] pyrimidin-4-one] |
| 547 | Cc1nc2c(c(C(F)F)nn2C(C)c2ccc(C(F)(F)F)cc2Cl)c(=O)[nH]1 (single isomer, unassigned) [Example 183, (R)- or (S)-1-(1-(2-Chloro-4-(trifluoromethyl)phenyl)ethyl)-3-(difluoromethyl)-6-methyl-1H-pyrazolo[3,4-d]pyrimidin-4(5H)-one] |
| 18 | Cc1nc2c(c(C(F)F)nn2C(C)c2ccc(OC(F)(F)F)c(F)c2)c(=O)[nH]1 (single isomer, unassigned) [Example 169, (R)- or (S)-3-(Difluoromethyl)-1-(1-(3-fluoro-4-(trifluoromethoxy)phenyl)ethyl)-6-methyl-1H-pyrazolo [3,4-d]pyrimidin-4(5H)-one] |
| 713 | Cc1nc2c(c(C(F)(F)F)nn2C(C)c2ccc(C(F)(F)F)cc2)c(=O)[nH]1 (single isomer, unassigned) [Example 69, (S)- or-(R)-6-Methyl-3-(trifluoromethyl)-1-(1-(4-(trifluoromethyl)phenyl)ethyl)-1H-pyrazolo[3,4-d]pyrimidin-4(5H)-one] |
| 32 | Cc1nc2c(c(CF)nn2C(c2ccc(C(F)(F)F)c(F)c2)C2CC2)c(=O)[nH]1 (single isomer, unassigned) [Example 227, (S)- or (R)-1-(Cyclopropyl(3-fluoro-4-(trifluoromethyl)phenyl)methyl)-3-(fluoromethyl)-6-methyl-1,5-dihydro-4H-pyrazolo[3,4-d]pyrimidin-4-one] |
| 2.8 | Cc1nc2c(c(CO)nn2C(C)c2ccc(S(F)(F)(F)(F)F)cc2F)c(=O)[nH]1 (single isomer, unassigned) [Example 121] |
| 329 | CC(c1ccc(C(F)(F)F)cc1)n1nc(CO)c2c(=O)[nH]c(CC3CCCC3)nc21 (single isomer, unassigned) [Example 308, (S)- or (R)-6-(Cyclopentyl-methyl)-3-(hydroxymethyl)-1-(1-(4-(trifluoromethyl)phenyl)ethyl)-1,5-dihydro-4H-pyrazolo[3,4-d]pyrimidin-4-one] |
| 13 | COCC(c1ccc(C(F)(F)F)cc1)n1nc(CO)c2c(=O)[nH]c(C)nc21 (single isomer, unassigned) [Example 101, (S)- or (R)-3-(Hydroxymethyl)-1-(2-methoxy-1-(4-(trifluoromethyl)phenyl)ethyl)-6-methyl-1H-pyrazolo[3,4-d]pyrimidin-4(5H)-one] |
| 1.9 | Cc1nc2c(c(CO)nn2C(C)c2ccc(OC(F)(F)F)cc2F)c(=O)[nH]1 (single isomer, unassigned) [Example 105, (S)- or (R)-1-(1-(2-Fluoro-4-(trifluoromethoxy)phenyl)ethyl)-3-(hydroxymethyl)-6-methyl-1H-pyrazolo[3,4-d]pyrimidin-4(5H)-one] |
| 5.6 | Cc1nc2c(c(CO)nn2C(C)c2ccc(C(F)(F)F)c(I)c2)c(=O)[nH]1 (single isomer, unassigned) [Example 139, (S)- or (R)-3-(Hydroxymethyl)-1-(1-(3-iodo-4-(trifluoromethyl-)phenyl)ethyl)-6-methyl-1,5-dihydro-4H-pyrazolo[3,4-d]pyrimidin-4-one] |
| 162 | Cc1nc2c(c(CO)nn2C(C)c2ccc(OC(F)(F)F)cc2F)c(=O)[nH]1 (single isomer, unassigned) [Example 104, (R)- or (S)-1-(1-(2-Fluoro-4-(trifluoromethoxy)phenyl)ethyl)-3-(hydroxymethyl)-6-methyl-1H-pyrazolo[3,4-d]pyrimidin-4(5H)-one] |
| 423 | Cc1nc2c(c(C3CCCO3)nn2C(C)c2ccc(C(F)(F)F)cc2)c(=O)[nH]1 (single isomer, unassigned) [Example 73, (S, S)- or (S, R)- or (R, R)- or (R, S)-6-Methyl-3-(-tetrahydrofuran-2-yl)-1-(-l-(4-(trifluoromethyl)phenyl)ethyl)-1H-pyrazolo[3,4-d]pyrimidin-4(5H)-one] |
| ~1800 | Cc1nc2c(c(NS(C)(=O)=O)nn2C(C)c2ccc(C(F)(F)F)cc2)c(=O)[nH]1 (stereo not shown) [Example 261, N-(6-Methyl-4-oxo-1-(1 (4-(trifluoromethyl)phenyl)ethyl)-4,5-dihydro-1H-pyrazolo[3,4-d]pyrimidin-3-yl)methanesulfonamide] |
| 25 | Cc1nc2c(c(-c3ccn[nH]3)nn2C(C)c2ccc(C(F)(F)F)cc2)c(=O)[nH]1 (single isomer, unassigned) [Example 235] |
| 116 | CCc1nc2c(c(CO)nn2C(C)c2ccc(C(F)(F)F)cc2)c(=O)[nH]1 (single isomer, unassigned) [Example 302, (S)- or (R)-6-Ethyl-3-(hydroxymethyl)-1-{1-[4-(trifluoromethyl)phenyl]ethyl}-1,5-dihydro-4H-pyrazolo[3,4-d]pyrimidin-4-one] |
| 452 | Cc1nc2c(c(C(F)(F)CO)nn2C(C)c2ccc(C(F)(F)F)cc2)c(=O)[nH]1 (single isomer, unassigned) [Example 254] |
| ~2820 | Cc1nc2c(c(CC(O)C(F)(F)F)nn2C(C)c2ccc(C(F)(F)F)cc2)c(=O)[nH]1 (single isomer, unassigned) [Example 239] |
| ~1670 | Cc1nc2c(c(C(F)F)nn2C(C)c2ccc(C(F)(F)F)nc2)c(=O)[nH]1 (single isomer, unassigned) [Example 195] |
| 72 | CC(c1ccc(S(F)(F)(F)(F)F)cc1)n1nc(CO)c2c(=O)[nH]c(C3CC3)nc21 (single isomer, unassigned) [Example 316, (S)- or (R)-6-Cyclopropyl-3-(hydroxymethyl)-1-{1-[4-(pentafluoro-sulfanyl)-phenyl]ethyl}-1,5-dihydro-4H-pyrazolo[3,4-d]pyrimidin-4-one] |
| 1.2 | Cc1nc2c(c([C@@H](C)CO)nn2[C@@H](C)c2ccc(C(F)(F)F)cc2)c(=O)[nH]1 (single isomer, unassigned) [Example 320] |
